In patent US6787530B1, “Use of pregnane-diones as analgesic agents” (priority 1996, dated 2004):

How the values were obtained:
[1] = system: spinal cord GABAA receptors; assay type: in vivo, rat
From the text: Groups of 10 rats were examined for the duration of the loss of righting reflex and loss of coordination in the rotarod test and also for antinociceptive effects in the electrical current threshold test measured in the tail. […] Thus we were able to compare the duration of sedation and anaesthesia and quantity of antinociception following intraperitoneal administration of the neurosteroid mixture and also following the components of the mixture at the doses which were given when the combination was used.
Rats were given a range of doses of alphadolone from 0.1 to 100 mg/kg intraperitoneally. The antinociceptive effect was measured using electrical current in the tail.

[2] = system: patients scheduled for knee reconstruction surgery; assay: Phase 1 study of oral alphadolone after knee reconstruction surgery: pain scores, PCA morphine consumption, CPM; assay type: in vivo, human; conditions: for morphine consumption from the PCA machine vs total range of placebo patients: single patients at 100, 250 and 500 mg orally
From the text: A pilot clinical study entitled “Investigation of the analgesic properties of alphadolone acetate administered orally to man—a dose escalation and efficacy study” was submitted to Monash Medical Centre Human Research and Ethics Committee A. It was approved and registered with the Therapeutics Goods Administration it Canberra under the Clinical Trials Notification (CTN) scheme. This was a small pilot study of phase 1 type design but incorporating some randomisation and placebo control because of the nature of the measurements, i.e. subjective pain measurements. The study was performed prospectively, one in three patients randomised to receive placebo formulation (lactose) and double-blind i.e. neither the patient nor the observer (a research anaesthetic registrar) were aware of the nature of the treatment, placebo or alphadolone.
The study consisted of two phases. The first phase was a dose escalation study. At any time during this phase as well as the second phase, if the patient was randomised to receive placebo then a capsule containing lactose was administered orally at the time of medication. If the patient was randomised to receive alphadolone then the first patient so randomised received 25 mg alphadolone acetate orally. The patient was monitored for efficacy of the medication and side effects. If there were no unacceptable side effects such as respiratory depression or severe sedation or disorientation then the next patient randomised to receive the active treatment received a higher dose. The dose escalation planned was in the order, 25, 50, 100, 250, 500 and 1000 mg. The original plan was to continue dose escalation until unacceptable side effects occurred and then to reduce the dose to go onto the next, second, phase of the study, a double-blind comparison of the dose just below the high dose that produced unacceptable side effects compared with placebo. However, the view of the Ethics Committee was that this was more appropriate to a drug company sponsored trial and they ordered that the trial should switch from the dose escalation phase to the comparison phase when there was clear evidence of efficacy.
Thus in the second phase of the study, a double-blind comparison of 250 mg of alphadolone with placebo was carried out. Patient 8, 10, 13 and 14 received 250 mg of alphadolone and patient 9, 11 and 12 received placebo.
14 patients scheduled for knee reconstruction surgery were recruited to this study. On the day prior to surgery for morning surgical patients or on the morning prior to afternoon surgery in those patients scheduled for afternoon lists, written informed consent was obtained from the patients after inclusion and exclusion criteria were met. The patient had to be ASA class 1 or 2, between 18 and 70 years, not using regular analgesics apart from paracetamol and non-steroid anti-inflammatory drugs. These were withheld on the day of surgery. The patient also had to have no renal, hepatic or respiratory disease other than mild asthma and could not be pregnant. No epidural/spinal/knee local anaesthetic or opioid injections were allowed. All patients had to receive post-operative morphine from a patient controlled analgesia device. After obtaining informed consent the patients were then given an opportunity to familiarise themselves with the PCA machine and also practice completing the visual analogue and verbal rating scales used for post-operative assessments.
No premedication was given. The patients were taken to the operating theatre and subjected to a standardised anaesthetic regime that consisted of a propofol induction followed by a propofol infusion and the muscle relaxant of the anaesthetist's preference The trachea was intubated and lungs ventilated with a mixture of nitrous oxide and oxygen. Morphine 1-2 mg intravenously was given as indicated by normal signs of depth of anaesthesia. The amount of morphine used in the operating theatre was recorded in the case record form. […]

[3] = Plasma alphadolone and glucuronide metabolite levels after oral capsule; assay type: in vivo, human
Protocol: The patients who had alphadolone administered orally to them, had blood samples taken at time 0, the time of drug administration, and at ½ hour intervals for 6 hours This blood was sent off to a laboratory at the Royal Melbourne Institute of Technology for analysis of blood alphadolone levels. It can be seen from Example 5 that no measurable alphadolone was found in the blood of these patients who were reporting useful analgesia with decreased morphine requirements. […] These experiments mean that very little or no free alphadolone was present in these patient's blood, but large quantities of alphadolone was present as the glucuronide metabolite. This evidence supports further our claim that the analgesic effects of alphadolone and alphadolone acetate given by oral and intraperitoneal routes involves activity of metabolites in general and the glucuronide in particular.
All patients had 10 ml of blood taken from a vein immediately prior to the capsule administration and also 30 minutes, one hour, 1½ hours, 2 hours, 3 hours, 4 hours and 6 hours after capsule administration. The blood was placed in heparinised tubes, centrifuged and the plasma decanted for later analysis of blood alphadolone levels by the Key Centre for Applied and Nutritional Toxicology, Royal Melbourne Institute of Technology.
No alphadolone was detected in the plasma. The lower limit of detection was 50 ng/ml. […] In 5 of these patients the metabolite was detected in the first sample taken after the alphadolone capsule had been given.

rats = assay: Sedation scoring (righting reflex, locomotion) after intravenous injection; assay type: in vivo, rat
From the text: It is generally accepted in the literature that both alphaxalone and alphadolone are intravenous anaesthetics, i.e. when they are given intravenously, they produce sedation and unconsciousness to a level sufficient for surgery. […] Such data, although alluded to in the literature, is not stated clearly with scientific evidence. Thus, we performed the experiments described in Example 2. Rats were given an intravenous injection of alphadolone. All of the rats became unconscious and surgically anaesthetised within 5 seconds of the intravenous injection. […] Thus, it can be concluded that intravenous injection of alphadolone produces unconsciousness.
Four rats (wt 100 g) were given 0.25 ml injections of alphadolone solution (10 mg/ml; dissolved in 10% Cremophor EL), into the lateral tail vein. A stopwatch was used to time the following scoring of sedation every 15 seconds:
1—righting reflex but no spontaneous locomotion
2—spontaneous locomotion but uncoordinated
3—normal locomotion and exploratory behaviour: full recovery
They all recovered fully within 90 seconds of the drug administration.

[4] = up to six hours after capsule, 100, 250 and 500 mg orally, n = 7
[5] = plasma treated with glucuronidase, 250 mg, 5 patients, 500 mg, one patient

Question: Which “dose response of antinociceptive effect (electrical current in the tail)” value ([1]; 0.1 to 100 mg/kg intraperitoneally, rats) does the source give for `CC(=O)OCC(=O)[C@H]1CC[C@H]2[C@@H]3CC[C@H]4C[C@H](O)CC[C@]4(C)[C@H]3C(=O)C[C@]12C` [alphadolone, 21-acetoxy-3alpha-hydroxy-5alpha-pregnane-11,20-dione] here?
Answer: dose-related increase in antinociceptive effect

Question: What about the “antinociceptive effects in the electrical current threshold test measured in the tail” value ([1]; ip, Saffan 2 ml/kg, alphaxalone 18 mg/kg, alphadolone 6 mg/kg, groups of 10 rats) of the same molecule?
Answer: all of the antinociceptive effects of the Saffan mixture could be achieved with alphadolone alone

Question: And the “morphine requirement and pain relief after major knee surgery” value ([2]; 250 mg and 500 mg given orally)?
Answer: reduced the morphine requirement for pain relief after major knee surgery and at the same time improved the pain relief

Question: And the “morphine sparing over six hours” value ([2]; (3.62÷12.42)×100% vs placebo)?
Answer: 29.1%

Question: And the “mean morphine usage during the six-hour period after capsule ingestion” value ([2]; PCA morphine, alphadolone treated patients (placebo 12.42 mg))?
Answer: 8.8 mg

Question: And the “Standardised VAS scores; Mann-Whitney U-Test, Mean rank” value ([2]; VAS after capsule as ratio of pre-capsule readings, six hours, 100, 250 and 500 mg orally)?
Answer: 82.85

Question: What about the “morphine consumption from the PCA machine vs total range of placebo patients” value ([2]; between one and six hours after capsule) of the same molecule?
Answer: fell outside the total range of morphine used by placebo treated patients

Question: And the “verbal rating pain scores compared with placebo (chi squared test)” value ([2]; n = 7 vs placebo n = 5, p=0.006)?
Answer: significantly lower pain scores

Question: And the “standardised visual analogue scores compared with placebo (Mann-Whitney U-test)” value ([2]; n = 7 vs placebo n = 5, p=0.0117)?
Answer: significantly lower standadised visual analogue scores

Question: What about the “morphine usage compared with placebo (chi-square)” value ([2]; p=0.0153, p=0.00651 with 3 and 4 mg cells combined) of the same molecule?
Answer: use less than placebo treated patients

Question: What about the “Morphine doses in half-hour periods: 0 mg, frequency” value ([2]; six hours after capsule, n = 7) of the same molecule?
Answer: 39

Question: And the “Morphine doses in half-hour periods: 1 mg, frequency” value ([2]; six hours after capsule, n = 7)?
Answer: 29

Question: And the “Morphine doses in half-hour periods: 2 mg, frequency” value ([2]; six hours after capsule, n = 7)?
Answer: 15

Question: And the “Morphine doses in half-hour periods: 3 mg, frequency” value ([2]; six hours after capsule, n = 7)?
Answer: 1

Question: What about the “Morphine doses in half-hour periods: 4 mg, frequency” value ([2]; six hours after capsule, n = 7) of the same molecule?
Answer: 0

Question: What about the “morphine usage with increasing alphadolone dose” value ([2]; six hours after capsule, single patients at 25, 50 and 100 mg orally) of the same molecule?
Answer: progressive reduction in morphine usage

Question: And the “morphine consumption from the PCA machine vs total range of placebo patients” value ([2]; six hours after capsule)?
Answer: fell outside the total range of the morphine consumption of placebo treated patients

Question: What about the “Verbal rating scales for pain: Mild, frequency” value [2, 4] of the same molecule?
Answer: 53

Question: What about the “Verbal rating scales for pain: Moderate, frequency” value [2, 4] of the same molecule?
Answer: 20

Question: What about the “Verbal rating scales for pain: No pain, frequency” value [2, 4] of the same molecule?
Answer: 6

Question: What about the “Verbal rating scales for pain: Severe, frequency” value [2, 4] of the same molecule?
Answer: 4

Question: What about the “alphadolone in plasma (lower limit of detection)” value ([3]; oral capsule, samples up to 6 hours, without glucuronidase treatment) of the same molecule?
Answer: < 50 ng/mL

Question: And the “alphadolone metabolite (glucuronide) in plasma” value [3, 5]?
Answer: microgram/ml concentrations

Question: And the “alphadolone metabolite in plasma at the 6 hour sampling time point” value [3, 5]?
Answer: still present, although decaying

Question: And the “righting reflex / sedation” value (rats; 25 mg/kg intravenous (lateral tail vein), 10% Cremophor EL, four rats)?
Answer: lost the righting reflex and were heavily sedated

Question: And the “time to full recovery after drug administration” value (rats; 25 mg/kg intravenous, four rats)?
Answer: ≤ 90 s

Question: And the “time to unconsciousness and surgical anaesthesia after intravenous injection” value (rats; intravenous injection, rats)?
Answer: ≤ 5 s
